For one data set, the target named is T1, Pol η (Homo sapiens, UniProt Q9Y253).
T1 construct: purchased EnzyMax
T1 sequence (Q9Y253 1-713): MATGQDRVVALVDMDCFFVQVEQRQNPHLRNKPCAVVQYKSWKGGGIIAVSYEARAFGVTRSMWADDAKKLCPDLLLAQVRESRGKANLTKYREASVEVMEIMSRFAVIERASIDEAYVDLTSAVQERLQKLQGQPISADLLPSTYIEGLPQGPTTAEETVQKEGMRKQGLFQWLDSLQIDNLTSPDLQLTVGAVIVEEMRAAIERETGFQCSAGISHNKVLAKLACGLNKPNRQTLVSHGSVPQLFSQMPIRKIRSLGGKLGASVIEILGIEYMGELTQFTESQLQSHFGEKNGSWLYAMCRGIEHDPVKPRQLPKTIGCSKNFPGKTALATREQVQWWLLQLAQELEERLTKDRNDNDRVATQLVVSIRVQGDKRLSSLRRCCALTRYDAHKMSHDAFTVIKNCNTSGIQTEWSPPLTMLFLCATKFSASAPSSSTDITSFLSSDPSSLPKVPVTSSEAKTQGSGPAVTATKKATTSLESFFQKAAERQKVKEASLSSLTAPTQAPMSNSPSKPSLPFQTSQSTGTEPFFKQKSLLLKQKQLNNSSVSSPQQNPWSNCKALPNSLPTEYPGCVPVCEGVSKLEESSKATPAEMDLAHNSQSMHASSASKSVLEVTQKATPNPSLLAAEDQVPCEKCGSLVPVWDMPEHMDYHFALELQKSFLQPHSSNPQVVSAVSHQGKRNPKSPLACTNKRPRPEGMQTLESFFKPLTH
Kind of data set: primer extension assay (Pol η). It counts as biochemical. Conditions: 10 μM. As for the experimental part: (§1) A 10× working solution of 14 (5 or 100 μM) was prepared in 1:1 MeCN/H2O. A 10× preincubation mixture was prepared by mixing a 50× working solution of polymerase (250 nM) with an aliquot of the inhibitor (5 or 100 μM, 10×) in 1× reaction buffer (50 mM Tris·HCl, 50 mM NaCl, 5 mM MgCl2, 5 mM DTT, 0.1 mg/mL BSA, 10% glycerol, pH 7.5) (see Table 19 for volumes). The concentration of the preincubation mixture was 50 nM polymerase (10×) and 0, 0.5 or 10 μM 14 (1×).
(§2) The samples containing 50 nM polymerase and 14 (0, 0.5, or 10 μM) were preincubated at 25° C. for 20 min. After preincubation, an aliquot (2 μL, pol η or 3 μL, pol λ) was diluted with 10× ternary complex (pol η: 2 μL, 500 nM D4 or pol λ: 3 μL, 100 nM TC5), 10× dNTPs (5 mM; 2 μL, pol η or 3 μL, pol λ), and 1× reaction buffer (14 μL., pol η or 21 μL, pol λ) (see Table 20 for volumes). While the samples were incubated at 37° C., aliquots (pol η: 0, 2, 5, 10, 15, 20 min, 3 μL or pol λ: 0, 5, 15, 20, 30 min, 5 μL) were removed and quenched by the addition of 95% formamide, 20 mM EDTA loading buffer (10 μL). Aliquots were heated at 95° C. for 5 min, spun down, and loaded onto a 20% denaturing PAGE and run for 4 h at 55 watts. The gel was exposed in a radiography cassette, which was scanned using a Phosphorimager.

The target of the next data set is T2, Pol λ (Homo sapiens, UniProt Q9UGP5).
T2 sequence (Q9UGP5 1-575): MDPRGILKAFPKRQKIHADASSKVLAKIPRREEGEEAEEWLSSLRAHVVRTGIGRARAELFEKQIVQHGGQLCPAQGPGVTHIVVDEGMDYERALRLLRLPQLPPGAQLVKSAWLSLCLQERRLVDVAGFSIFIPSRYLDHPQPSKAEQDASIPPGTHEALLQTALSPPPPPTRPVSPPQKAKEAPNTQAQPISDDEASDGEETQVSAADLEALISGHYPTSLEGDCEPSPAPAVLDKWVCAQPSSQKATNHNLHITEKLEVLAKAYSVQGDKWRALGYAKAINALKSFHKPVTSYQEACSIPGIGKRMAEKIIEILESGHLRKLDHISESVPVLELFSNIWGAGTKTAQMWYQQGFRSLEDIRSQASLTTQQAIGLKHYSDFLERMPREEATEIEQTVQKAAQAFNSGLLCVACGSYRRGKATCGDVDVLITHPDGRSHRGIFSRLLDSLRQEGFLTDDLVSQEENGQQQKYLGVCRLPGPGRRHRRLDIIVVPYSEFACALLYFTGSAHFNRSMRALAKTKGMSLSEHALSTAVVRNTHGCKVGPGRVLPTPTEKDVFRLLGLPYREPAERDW
Briefly: primer extension assay (Pol λ). In kind it is biochemical. The settings on record: 10 μM. On the procedure: as §1, §2

The target of a further data set is DNA polymerase β (Pol β) (Homo sapiens, UniProt P06746). Conditions: 30 min preincubation; Paul et al.; cited from earlier work.
In the next data set the test system is UWB1.289+BRCA1. Kind of data set: clonogenic assay, BRCA1 complemented ovarian cancer cells. In kind it is cell-based.
In another data set the test system is MDA-MB-436. Briefly: clonogenic assay, BRCA1 deficient breast cancer cells. In kind it is cell-based. Conditions: 1 h. On the procedure: (§3) The medium was removed, and the cells were resuspended in fresh media (10 mL). […] The excess dye was removed by washing with water twice.
For another data set, the system named is UWB1.289 (BRCA1−/−). Briefly: clonogenic assay, BRCA1 deficient ovarian cancer cells. It counts as cell-based. The settings on record: 1 μM. As for the experimental part:
as §3
UWB1.289 cells (6×106) were seeded with RPMI 1640/MEGM medium (10 mL) into a 100 mm plate prior to transfection so cells would be adherent and ˜80% confluent on the first day of transfection, which was determined by manual inspection. Transfection was completed as follows: • 1. Lipofectamine RNAiMAX (60 μL) was diluted in Opti-MEM reduced serum medium to 1 mL. • 2. In a separate tube, siRNA (either siNT or siPol β, 10 μM, 60 μL, […]) was diluted in Opti-MEM (500 μL). • 3. The Lipofectamine solution was split (2×500 μL aliquots) and mixed with either siNT or siPol β solution to form the lipid-RNA complex at 25° C. for 5 min. • 4. The RPMI 1640/MEGM medium was removed and replaced with Opti-MEM medium (9 mL). After 5 min incubation, the lipid-RNA solution (1 mL) was added to the cells. Cells were incubated at 37° C. in a 5% CO2 humidified incubator. The following day, steps 1-3 were repeated. and the resulting 2×500 μL solutions were added to the existing cells that had been incubating at 37° C., 5% CO2 for 24 h. Transfected cells were allowed to incubate for an additional 48 h at 37° C., 5% CO2 after the second addition of siRNA. […]

The subject of a further data set is MCF-7. Briefly: clonogenic assay, BRCA1 proficient breast cancer cells. The settings on record: 1 h. It counts as cell-based. As for the experimental part:
as §3

In data set [1] the test system is MEFs lacking Pol β (Pol β−/−). Briefly: cell viability assay for MEFs lacking Pol β. The settings on record: MMS alone. It counts as cell-based, mouse.
Procedure: Mouse embryonic fibroblasts (Pol β1 WT, Pol β−/−, Pol λ WT, Pol λ−/−, Pol β−/λ−) were seeded at a density of ˜0.3×10^6 cells/well in 6-well dishes. […] Control wells were treated with an equal volume of vector (50% MeCN in H2O). Cells were washed with 1×PBS and fresh medium was added. Dishes were incubated for 5 days at 34° C. in a 10% CO2 incubator until untreated control cells were approximately 80% confluent. Cells (triplicate wells for each treatment concentration were counted by a cell lysis procedure (described previously), and the results were expressed as the surviving fraction of cells in drug-treated wells relative to control wells.

Molecules are shown by their SMILES.

As for `O=C(NC1CC(n2cc(CNC(=O)c3cc4cc(Br)ccc4c(Br)c3O)c(=O)[nH]c2=O)OC1COP(=O)(O)OCC1CC(O)OC1O)c1cc(-c2ccc(Cl)cc2)oc1C(F)(F)F` (stereo not drawn) [Compound 14], the “Pol η activity retained” value at Pol η is “approximately 50%”. Also, the “Pol λ activity relative to untreated enzyme” value at Pol λ is “more than 25%”.

As to `COc1cc(Cl)c(C=NOC2CC(n3cc(CNC(=O)c4cc5cccc(O)c5cc4O)c(=O)[nH]c3=O)OC2COP(=O)(O)OCC2CC(O)OC2O)c(Cl)c1O` (stereo not drawn) [Compound 2], at DNA polymerase β (Pol β), the IC50 is 400 nM.

As to `O=C(c1cc(Cc2n[nH]c(=O)c3ccccc23)ccc1F)N1CCN(C(=O)C2CC2)CC1` [Olaparib], the toxicity entry with UWB1.289+BRCA1 (1 h treatment) was “modestly toxic”. In the data set with UWB1.289+BRCA1 (time course), the “cytotoxicity upon prolonged treatment, compared with pro-1” value is recorded as “more cytotoxic”. The “cell killing compared with pro-1” value in the data set on MDA-MB-436 is recorded as “more effective at killing BRCA1−/− cells at a lower concentration”. Also, the “cytotoxicity as a function of treatment time” value in the data set with UWB1.289 (BRCA1−/−) is recorded as “proportional to incubation time”. For the same compound, the “toxicity compared with pro-1” value in the data set on MCF-7 was “more toxic”.

Turning to `COS(C)(=O)=O` [MMS, methyl methanesulfonate], the “toxicity compared with WT MEFs” value in data set [1] is on record as “considerably more toxic”.

Broadly, the IC50 is the midpoint of a concentration-inhibition curve.

Values taken from patent US20240376143A1, “SELECTION INHIBITION OF DNA POLYMERASE BETA BY A COVALENT INHIBITOR” (The Johns Hopkins University, priority 2021, published 2024).
